This is an account of results in US10556907B2 (AbbVie Inc., priority 2015, dated 2020).

Assay in all cases: Method 1: intracellular Ca2+ release (FLIPR, Calcium 5) in recombinant CHO-K1 cells
Format in all cases: cell-based

In one assay the target is T1, human S1PR4 receptor (Homo sapiens, UniProt O95977).
T1 construct: host or cells: CHO-K1
T1 sequence (O95977 1-384): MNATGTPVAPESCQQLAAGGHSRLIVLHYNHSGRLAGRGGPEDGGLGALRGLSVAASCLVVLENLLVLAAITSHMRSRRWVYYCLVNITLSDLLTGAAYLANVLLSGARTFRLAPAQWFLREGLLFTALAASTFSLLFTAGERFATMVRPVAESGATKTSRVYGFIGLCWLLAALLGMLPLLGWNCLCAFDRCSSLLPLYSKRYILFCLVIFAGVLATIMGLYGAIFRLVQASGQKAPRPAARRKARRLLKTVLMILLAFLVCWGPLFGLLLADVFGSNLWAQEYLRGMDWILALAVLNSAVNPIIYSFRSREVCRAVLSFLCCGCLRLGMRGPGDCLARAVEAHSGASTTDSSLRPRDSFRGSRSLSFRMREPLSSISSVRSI
Conditions: (1): determined with method 1; read-out: S1P4 EC50. The method in brief:
(§1)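 Agonist EC50 values come from nonlinear fits of FLIPR Ca2+ fluorescence, normalized to the phospho-fingolimod reference curve. Recombinant CHO-K1 (receptor plus Gq/i5, aequorin) dye-loaded 1 h at 37° C in pH 7.4 Hepes/probenecid/BSA buffer. Antagonist mode: 10 min preincubation before phospho-fingolimod at EC80.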

In a further assay the target is T2, human S1PR5 receptor (Homo sapiens, UniProt Q9H228).
T2 construct: host or cells: CHO-K1
T2 sequence (Q9H228 whole entry): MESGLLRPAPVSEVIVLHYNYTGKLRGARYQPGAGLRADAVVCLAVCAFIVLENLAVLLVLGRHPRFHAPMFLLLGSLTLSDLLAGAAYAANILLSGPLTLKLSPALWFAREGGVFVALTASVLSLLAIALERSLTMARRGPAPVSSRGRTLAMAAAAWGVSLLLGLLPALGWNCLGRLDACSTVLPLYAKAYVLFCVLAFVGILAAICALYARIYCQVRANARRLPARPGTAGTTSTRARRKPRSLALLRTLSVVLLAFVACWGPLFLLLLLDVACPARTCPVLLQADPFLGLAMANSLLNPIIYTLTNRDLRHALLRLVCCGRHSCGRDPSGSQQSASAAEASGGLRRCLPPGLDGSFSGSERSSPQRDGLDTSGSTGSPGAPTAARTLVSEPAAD
Conditions: agonist potency, determined with method 1 (symbols A-D); read-out: S1P5 EC50 range. The method in brief:
as §1

A further assay deals with T3, human S1PR1 receptor (Homo sapiens, UniProt P21453).
T3 construct: host or cells: CHO-K1
T3 sequence (P21453 whole entry): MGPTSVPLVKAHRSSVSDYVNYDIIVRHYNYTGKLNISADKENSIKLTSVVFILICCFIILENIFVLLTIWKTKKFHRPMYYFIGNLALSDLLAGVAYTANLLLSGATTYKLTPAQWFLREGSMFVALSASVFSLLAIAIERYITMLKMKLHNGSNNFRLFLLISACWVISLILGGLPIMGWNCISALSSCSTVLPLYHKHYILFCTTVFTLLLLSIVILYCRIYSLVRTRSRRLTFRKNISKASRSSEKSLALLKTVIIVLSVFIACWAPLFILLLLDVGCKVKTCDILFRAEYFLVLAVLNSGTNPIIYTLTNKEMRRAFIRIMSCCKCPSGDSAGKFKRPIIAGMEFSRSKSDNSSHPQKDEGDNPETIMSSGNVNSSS
The following applies: (1): determined with method 1; read-out: S1P1 EC50. An outline of the steps: as §1

The structures appear in SMILES notation. Where a name gives a salt, the structure may show the parent alone.

For `Cc1cc(-c2ncc3c(n2)CCN(CC(C)CC(=O)O)C3)ccc1OCc1c(F)cccc1F` (stereo not drawn) [Compound 316, 4-[2-[4-[(2,6-difluorophenyl)methoxy]-3-methyl-phenyl]-7,8-dihydro-5H-pyrido[4,3-d]pyrimidin-6-yl]-3-methyl-butanoic acid 2,2,2-trifluoroacetic acid salt], the EC50 on human S1PR4 receptor is < 1000 nM; at human S1PR5 receptor, 100 to 1000 nM; on human S1PR1 receptor, > 1000 nM.

Take `Cc1cccc(C)c1COc1ccc(-c2ncc3c(n2)CCN(CC(C)CC(=O)O)C3)c(F)c1` (stereo not drawn) [Compound 276, 4-[2-[4-[(2,6-dimethylphenyl)methoxy]-2-fluoro-phenyl]-7,8-dihydro-5H-pyrido[4,3-d]pyrimidin-6-yl]-3-methyl-butanoic acid 2,2,2-trifluoroacetic acid salt]: the EC50 is > 1000 nM on human S1PR4 receptor, 10 to 100 nM at human S1PR5 receptor and > 1000 nM on human S1PR1 receptor.

As to `O=C(O)C1CC(N2CCc3nc(-c4ccc(OCc5ccc(Cl)cc5)cc4)ncc3C2)C1` (stereo not drawn) [Compound 287, 3-(2-(4-((4-chlorobenzyl)oxy)phenyl)-7,8-dihydropyrido[4,3-d]pyrimidin-6(5H)-yl)cyclobutanecarboxylic acid], the concentration giving a half-maximal response (EC50) at human S1PR4 receptor is > 1000 nM; at human S1PR5 receptor, 100 to 1000 nM; at human S1PR1 receptor, > 1000 nM.

Regarding `CC(CC(=O)O)CN1Cc2cnc(-c3ccc(OCc4ccc(Cl)cc4)cc3)nc2CC1(C)C` (stereo not drawn) [Compound 329, 4-(2-(4-((4-chlorobenzyl)oxy)phenyl)-7,7-dimethyl-7,8-dihydropyrido[4,3-d]pyrimidin-6(5H)-yl)-3-methylbutanoic acid], the EC50 on human S1PR4 receptor is > 1000 nM; at human S1PR5 receptor, 1000 to 10000 nM; at human S1PR1 receptor, > 1000 nM.

As to `Cc1cc(-c2ncc3c(n2)CCN(CC(C)CC(=O)O)C3)ccc1OCc1cccc(C(F)(F)F)c1C` (stereo not drawn) [Compound 273, 3-methyl-4-(2-(3-methyl-4-((2-methyl-3-(trifluoromethyl)benzyl)oxy)phenyl)-7,8-dihydropyrido[4,3-d]pyrimidin-6(5H)-yl)butanoic acid], the EC50 at human S1PR4 receptor is > 1000 nM; on human S1PR5 receptor, 10 to 100 nM; on human S1PR1 receptor it was > 1000 nM.

Turning to `Cc1ccc(C(F)(F)F)cc1COc1ccc(-c2ncc3c(n2)CCN(CC(C)CC(=O)O)C3)cc1C` (stereo not drawn) [Compound 314, 3-methyl-4-[2-[3-methyl-4-[[2-methyl-5-(trifluoromethyl)phenyl]methoxy]phenyl]-7,8-dihydro-5H-pyrido[4,3-d]pyrimidin-6-yl]butanoic acid 2,2,2-trifluoroacetic acid salt], the EC50 at human S1PR4 receptor was > 1000 nM; at human S1PR5 receptor, 100 to 1000 nM; on human S1PR1 receptor it was > 1000 nM.

Regarding `CC(CC(=O)O)CN1CCc2nc(-c3ccc(CCc4ccccc4)cc3F)ncc2C1` (stereo not drawn) [Compound 280, 4-(2-(2-fluoro-4-phenethylphenyl)-7,8-dihydropyrido[4,3-d]pyrimidin-6(5H)-yl)-3-methylbutanoic acid], the concentration giving a half-maximal response (EC50) was > 1000 nM at human S1PR4 receptor, 10 to 100 nM on human S1PR5 receptor and > 1000 nM on human S1PR1 receptor.

Take `O=C(O)CN1CCc2nc(-c3ccc(OCc4cccc(F)c4F)cc3)ncc2C1` [Compound 28, 2-(2-(4-((2,3-difluorobenzyl)oxy)phenyl)-7,8-dihydropyrido[4,3-d]pyrimidin-6(5H)-yl)acetic acid]: the EC50 at human S1PR4 receptor was < 1000 nM; on human S1PR5 receptor, 10 to 100 nM; at human S1PR1 receptor, > 1000 nM.

Turning to `Cc1ccc(COc2ccc(-c3ncc4c(n3)CCN(CC(C)CC(=O)O)C4)c(F)c2)c(C)c1` (stereo not drawn) [Compound 304, 4-[2-[4-[(2,4-dimethylphenyl)methoxy]-2-fluoro-phenyl]-7,8-dihydro-5H-pyrido[4,3-d]pyrimidin-6-yl]-3-methyl-butanoic acid 2,2,2-trifluoroacetic acid salt], the figures for the EC50 on human S1PR4 receptor, on human S1PR5 receptor and on human S1PR1 receptor were > 1000 nM, 100 to 1000 nM and > 1000 nM, respectively.

As to `CC(CC(=O)O)CN1CCc2nc(-c3ccc(C(F)(F)Cc4cccc(Cl)c4)cc3)ncc2C1` (stereo not drawn) [Compound 328, 4-(2-(4-(2-(3-chlorophenyl)-1,1-difluoroethyl)phenyl)-7,8-dihydropyrido[4,3-d]pyrimidin-6(5H)-yl)-3-methylbutanoic acid], the figures for the EC50 on human S1PR4 receptor, on human S1PR5 receptor and at human S1PR1 receptor were > 1000 nM, 1000 to 10000 nM and > 1000 nM, respectively.

For `O=C(O)CC1CC(N2CCc3nc(-c4ccc(OCc5cc(Cl)cc(Cl)c5)cc4)ncc3C2)C1` (stereo not drawn) [Compound 5, 2-(3-(2-(4-((3,5-dichlorobenzyl)oxy)phenyl)-7,8-dihydropyrido[4,3-d]pyrimidin-6(5H)-yl)cyclobutyl)acetic acid], the EC50 at human S1PR4 receptor was > 1000 nM; at human S1PR5 receptor, 100 to 1000 nM; at human S1PR1 receptor, > 1000 nM.

With `C[C@@H](CC(=O)O)CN1CCc2nc(-c3ccc(CCc4ccc(Cl)cc4)cc3)ncc2C1` [Compound 278, (S)-4-(2-(4-(4-chlorophenethyl)phenyl)-7,8-dihydropyrido[4,3-d]pyrimidin-6(5H)-yl)-3-methylbutanoic acid], the values for the EC50 at human S1PR4 receptor, at human S1PR5 receptor and at human S1PR1 receptor were > 1000 nM, 10 to 100 nM and > 1000 nM, respectively.

As to `CC(CC(=O)O)CN1CCc2nc(-c3ccc(OCc4cccc(Cl)c4)cc3)cnc2C1` (stereo not drawn) [Compound 209, 4-(2-(4-((3-chlorobenzyl)oxy)phenyl)-7,8-dihydropyrido[3,4-b]pyrazin-6(5H)-yl)-3-methylbutanoic acid], the EC50 on human S1PR4 receptor is > 1000 nM; at human S1PR5 receptor, < 10 nM; on human S1PR1 receptor it was > 1000 nM.

`O=C(O)C1CCC(N2CCc3nc(-c4ccc(OCc5cccc(Cl)c5)cc4)ncc3C2)C1` (stereo not drawn) [Compound 288, 3-(2-(4-((3-chlorobenzyl)oxy)phenyl)-7,8-dihydropyrido[4,3-d]pyrimidin-6(5H)-yl)cyclopentanecarboxylic acid hydrochloride]: the figures for the 50% effective concentration (EC50) on human S1PR4 receptor, on human S1PR5 receptor and at human S1PR1 receptor were > 1000 nM, 100 to 1000 nM and > 1000 nM, respectively.

Regarding `Cc1ccc(C(F)(F)F)c(COc2ccc(-c3ncc4c(n3)CCN(CC(C)CC(=O)O)C4)c(F)c2)c1` (stereo not drawn) [Compound 290, 4-[2-[2-fluoro-4-[[5-methyl-2-(trifluoromethyl)phenyl]methoxy]phenyl]-7,8-dihydro-5H-pyrido[4,3-d]pyrimidin-6-yl]-3-methyl-butanoic acid 2,2,2-trifluoroacetic acid salt], the values for the EC50 on human S1PR4 receptor, on human S1PR5 receptor and on human S1PR1 receptor were > 1000 nM, 100 to 1000 nM and > 1000 nM, respectively.

Regarding `CC(CC(=O)O)CN1CCc2nc(-c3ccc(OCC4CCCCC4)cc3)ncc2C1` (stereo not drawn) [Compound 336, 4-(2-(4-(cyclohexylmethoxy)phenyl)-7,8-dihydropyrido[4,3-d]pyrimidin-6(5H)-yl)-3-methylbutanoic acid], the EC50 on human S1PR4 receptor was < 1000 nM; at human S1PR5 receptor, < 10 nM; at human S1PR1 receptor, > 1000 nM.

In the case of `Cc1ccc(C)c(COc2ccc(-c3ncc4c(n3)CCN(CC(C)CC(=O)O)C4)cc2C)c1` (stereo not drawn) [Compound 311, 4-[2-[4-[(2,5-dimethylphenyl)methoxy]-3-methyl-phenyl]-7,8-dihydro-5H-pyrido[4,3-d]pyrimidin-6-yl]-3-methyl-butanoic acid 2,2,2-trifluoroacetic acid salt], the EC50 on human S1PR4 receptor is > 1000 nM; on human S1PR5 receptor it was 100 to 1000 nM; on human S1PR1 receptor, > 1000 nM.

Consider `CC(C(=O)O)N1CCc2nc(-c3ccc(OCc4ccc(Cl)cc4)cc3)ncc2C1` (stereo not drawn) [Compound 312, 2-(2-(4-((4-chlorobenzyl)oxy)phenyl)-7,8-dihydropyrido[4,3-d]pyrimidin-6(5H)-yl)propanoic acid], for which the EC50 was > 1000 nM at human S1PR4 receptor, 100 to 1000 nM on human S1PR5 receptor and > 1000 nM on human S1PR1 receptor.

Take `O=C(O)CN1CCc2nc(-c3ccc(OCc4cc(F)cc(F)c4)cc3)ncc2C1` [Compound 31, 2-(2-(4-((3,5-difluorobenzyl)oxy)phenyl)-7,8-dihydropyrido[4,3-d]pyrimidin-6(5H)-yl)acetic acid]: the results for the EC50 at human S1PR4 receptor, on human S1PR5 receptor and on human S1PR1 receptor were > 1000 nM, 100 to 1000 nM and > 1000 nM, respectively.

Take `CCc1ccc(COc2ccc(-c3ncc4c(n3)CCN(CC(C)CC(=O)O)C4)cc2C)cc1` (stereo not drawn) [Compound 306, 4-[2-[4-[(4-ethylphenyl)methoxy]-3-methyl-phenyl]-7,8-dihydro-5H-pyrido[4,3-d]pyrimidin-6-yl]-3-methyl-butanoic acid 2,2,2-trifluoroacetic acid salt]: the EC50 at human S1PR4 receptor is > 1000 nM; at human S1PR5 receptor, 100 to 1000 nM; at human S1PR1 receptor, > 1000 nM.

On to `O=C(O)CN1CCc2nc(-c3ccc(OCc4cccc(F)c4)cc3)ncc2C1` [Compound 27, 2-(2-(4-((3-fluorobenzyl)oxy)phenyl)-7,8-dihydropyrido[4,3-d]pyrimidin-6(5H)-yl)acetic acid], for which the EC50 at human S1PR4 receptor is > 1000 nM; on human S1PR5 receptor it was 10 to 100 nM; on human S1PR1 receptor, > 1000 nM.

In the case of `Cc1ccc(COc2ccc(-c3ncc4c(n3)CCN(CC(C)CC(=O)O)C4)c(F)c2)cc1` (stereo not drawn) [Compound 307, 4-[2-[2-fluoro-4-(p-tolylmethoxy)phenyl]-7,8-dihydro-5H-pyrido[4,3-d]pyrimidin-6-yl]-3-methyl-butanoic acid 2,2,2-trifluoroacetic acid salt], the EC50 on human S1PR4 receptor was > 1000 nM; on human S1PR5 receptor, 100 to 1000 nM; on human S1PR1 receptor, > 1000 nM.

A word on the EC50: it is the concentration giving half of the maximal effect.
